The values below come from US11767330B2, “Citrate salt, pharmaceutical compositions, and methods of making and using the same” (Foghorn Therapeutics Inc., priority 2021, dated 2023).

Type in all cases: physicochemical
Data set [1] is described as follows: Forced degradation study of compound S-D1 (chiral HPLC). The method, then:
Sample solution stock was prepared by weighing 501.53 mg of compound S-D1 to a 100 mL volumetric flask, dissolving by ultrasonic in 50 mL of diluent 2, diluting to volume with diluent 2, and mixing well.
Unstressed sample solution was prepared by weighing 50.83 mg of compound S-D1 into a 100 mL volumetric flask, dissolving by ultrasonic in 50 mL of diluent 2, diluting to volume with diluent 2, and mixing well.
Sample solution for pH=4.0 solution stability was prepared as follows. 50.79 mg of compound S-D1 were weighed into a 100 mL volumetric flask, dissolved by ultrasonic in 50 mL of pH=4.0 50 mM sodium citrate buffer (see above), diluted to volume with pH=4.0 50 mM sodium citrate buffer, and mixed well.
Sample solution for pH=5.0 solution stability was prepared as follows. 50.66 mg of the compound of Formula I were weighed into a 100 mL volumetric flask, dissolved by ultrasonic in 50 mL of pH=5.0 50 mM sodium citrate buffer (see above), diluted to volume with 50 mL of pH=5.0 50 mM sodium citrate buffer and mixed well.
Sample solution for pH=7.0 solution stability was prepared as follows. 50.78 mg of compound S-D1 and 680.42 mg KH2PO4 were weighed into a 100 mL volumetric flask, dissolved by ultrasonic in 50 mL of diluent 1, transferred 29.1 mL of the 0.1N NaOH (see above), diluted to volume with diluent 1, and mixed well.
Acid degradation (1N HCl at RT). 3 mL of the sample stock solution (see above) into an 8 mL vial, added 3 mL of 2N HCl solution, and mixed well. Samples were prepared in quadruplicate and kept at room temperature (RT). At the sampling time point, 1 mL of the sample was transferred into a 5 mL volumetric flask, neutralized with 0.5 mL of […], diluted to volume with diluent 2, and mixed well.
Basic degradation (0.15N NaOH at RT). 3 mL of the sample stock solution (see above) into an 8 mL vial, added 3 mL of 0.3N NaOH solution, and mixed well. Samples were prepared in quadruplicate and kept at room temperature (RT). At the sampling time point, 1 mL of the sample was transferred into a 5 mL volumetric flask, neutralized with 0.5 mL of […], diluted to volume with diluent 2, and mixed well.
Thermal stress degradation (50° C. for solid). Approximately 150 mg of compound S-D1 were weighed into an 8 mL vial. Multiple samples were prepared and placed in an oven at 50° C. At the sampling time points, each of the 50.57 mg, 50.84 mg, and 50.84 mg samples were transferred into their respective 100 mL volumetric flasks, dissolved by ultrasonic in 50 mL of diluent 2, diluted to volume with diluent 2, and mixed well.
Solution Stability. The study was performed according to the conditions outlined in Table 15 using sample solution for pH=4.0 solution stability, sample solution for pH=5.0 solution stability, and sample solution for pH=7.0 solution stability (see above).

The nature of data set [2]: Physical stability by XRPD upon drying at 50° C. under vacuum and exposure to >95% RH. The method, then:
X-Ray Powder Diffraction (XRPD). XRPD was performed using a Rigaku MiniFlex 600 in reflection mode (i.e., Bragg-Brentano geometry). Samples were prepared on Si zero-return wafers.
XRPD analysis was done in three stages. XRPD of the wet cake was done for all samples where solids were observed.
The solids were then exposed to >95% RH overnight. This humid environment was produced by placing a beaker of saturated potassium sulfate in water in a sealed container at RT. The materials exposed to these conditions were evaluated by XRPD, and their patterns were compared to those produced before.
The pattern FF-B was dried at 50° C. under vacuum for 3 h after filtration for further XRPD analysis. The solids were then exposed to >95% RH overnight. This humid environment was produced by placing a beaker of saturated potassium sulfate in water in a sealed container at RT. The materials exposed to these conditions were evaluated by XRPD, and their patterns were compared to those of the crystalline freebase along each step.

Data set [3] can be described thus: Stability at 40° C./75% RH for 1 week. Particulars: 40° C. and 75% RH. The method, then:
The humid environment was generated with saturated sodium chloride in water in a sealed container. After one week, the sample appeared pale-yellow upon inspection.
The one-week stability at 75% RH was also tested. In this experiment, 12 mg of the dried crystalline freebase from MeOH were weighted in a 4 mL vial and placed in a 20 mL vial set at 40° C. and 75% RH for 1 week. The humid environment was generated with saturated sodium chloride in water in a sealed container.
The one-week stability at 75% RH was also tested. In this experiment, 12 mg of the crystalline freebase from MeOH was weighted in a 4 mL vial and placed in a 20 mL vial set at 40° C. and 75% RH for 1 week. The humid environment was generated with saturated sodium chloride in water in a sealed container.

The mark [4] stands for this setting: Acid Hydrolysis, 1N HCl RT, 0 h.
The mark [5] stands for this setting: Acid Hydrolysis, 1N HCl RT, 1 d.
Where [6] appears, read: Acid Hydrolysis, 1N HCl RT, 2 d.
Setting [7] is: Acid Hydrolysis, 1N HCl RT, 3 d.
[8] abbreviates: Base Hydrolysis, 0.15 N NaOH RT, 0 h.
Where [9] appears, read: Base Hydrolysis, 0.15 N NaOH RT, 1 h.
Setting [10] is: Solution Stability, pH = 4.0, 50 mM Sodium citrate buffer at RT, 0 h.
The mark [11] stands for this setting: Solution Stability, pH = 4.0, 50 mM Sodium citrate buffer at RT, 1 d.
[12] abbreviates: Solution Stability, pH = 4.0, 50 mM Sodium citrate buffer at RT, 2 d.
Setting [13] is: Solution Stability, pH = 4.0, 50 mM Sodium citrate buffer at RT, 3 d.
The mark [14] stands for this setting: Solution Stability, pH = 5.0 50 mM Sodium citrate buffer at RT, 0 h.
[15] abbreviates: Solution Stability, pH = 5.0 50 mM Sodium citrate buffer at RT, 1 d.
The mark [16] stands for this setting: Solution Stability, pH = 5.0 50 mM Sodium citrate buffer at RT, 2 d.
Where [17] appears, read: Solution Stability, pH = 5.0 50 mM Sodium citrate buffer at RT, 3 d.
Where [18] appears, read: Solution Stability, pH = 7.0 Phosphate buffer at RT, 0 h.
Setting [19] is: Solution Stability, pH = 7.0 Phosphate buffer at RT, 1 d.
Setting [20] is: Solution Stability, pH = 7.0 Phosphate buffer at RT, 2 d.
[21] abbreviates: Solution Stability, pH = 7.0 Phosphate buffer at RT, 3 d.

Turning to `COc1cc(-c2cn(C)c(=O)c3cnc(N4CCC4)cc23)cc(OC)c1CN1CCC(CN2CCC3(CC2)CN(c2ccc4c(c2)C(=O)N([C@H]2CCC(=O)NC2=O)C4)C3)CC1` [S-D1], the “% Degradation” value stood at 0.002% in data set [1] (setting [4]); 0.005% in data set [1] (setting [5]); 0.011% in data set [1] (setting [6]); 0.016% in data set [1] (setting [7]); 18.260% in data set [1] (setting [8]); 52.210% in data set [1] (setting [9]). Moreover, the “% Degradation” value in data set [1] (setting [10]) amounted to 0.098%; in data set [1] (setting [11]) it was 0.139%; in data set [1] (setting [12]), 0.301%; in data set [1] (setting [13]), 0.482%; in data set [1] (setting [14]), 0.648%; in data set [1] (setting [15]), 1.038%. Further, the “% Degradation” value was determined as 1.407% in data set [1] (setting [16]); 2.002% in data set [1] (setting [17]); 10.732% in data set [1] (setting [18]); 18.922% in data set [1] (setting [19]); 27.551% in data set [1] (setting [20]); 35.103% in data set [1] (setting [21]). Further, the “% Degradation” value in data set [1] (Thermal, 50° C. (solid), 1 d) is 0.178%; in data set [1] (Thermal, 50° C. (solid), 3 d), 0.331%; in data set [1] (Thermal, 50° C. (solid), 7 d), 0.380%. The “Area % (R-D1)” value amounted to 0.825% in data set [1] (setting [4]); 0.828% in data set [1] (setting [5]); 0.834% in data set [1] (setting [6]); 0.839% in data set [1] (setting [7]); 19.083% in data set [1] (setting [8]); 53.033% in data set [1] (setting [9]). The “Area % (R-D1)” value in data set [1] (setting [10]) was 0.921%; in data set [1] (setting [11]), 0.962%; in data set [1] (setting [12]), 1.124%; in data set [1] (setting [13]) it was 1.305%; in data set [1] (setting [14]), 1.471%; in data set [1] (setting [15]) it was 1.861%. For the same compound, the “Area % (R-D1)” value in data set [1] (setting [16]) is given as 2.230%; in data set [1] (setting [17]) it was 2.825%; in data set [1] (setting [18]), 11.555%; in data set [1] (setting [19]), 19.745%; in data set [1] (setting [20]) it was 28.374%; in data set [1] (setting [21]), 35.926%. The “Area % (R-D1)” value worked out at 1.001% in data set [1] (Thermal, 50° C. (solid), 1 d); 1.154% in data set [1] (Thermal, 50° C. (solid), 3 d); 1.203% in data set [1] (Thermal, 50° C. (solid), 7 d); 0.823% in data set [1] (Unstressed). For the same compound, the “Area % (S-D1)” value is 99.176% in data set [1] (setting [4]); 99.172% in data set [1] (setting [5]); 99.166% in data set [1] (setting [6]); 99.161% in data set [1] (setting [7]); 80.917% in data set [1] (setting [8]); 46.967% in data set [1] (setting [9]). Also, the “Area % (S-D1)” value is reported as 99.079% in data set [1] (setting [10]); 99.038% in data set [1] (setting [11]); 98.876% in data set [1] (setting [12]); 98.695% in data set [1] (setting [13]); 98.529% in data set [1] (setting [14]); 98.139% in data set [1] (setting [15]). Also, the “Area % (S-D1)” value in data set [1] (setting [16]) was 97.770%; in data set [1] (setting [17]) it was 97.175%; in data set [1] (setting [18]) it was 88.445%; in data set [1] (setting [19]) it was 80.255%; in data set [1] (setting [20]) it was 71.626%; in data set [1] (setting [21]), 64.074%. The “Area % (S-D1)” value turned out to be 98.999% in data set [1] (Thermal, 50° C. (solid), 1 d); 98.847% in data set [1] (Thermal, 50° C. (solid), 3 d); 98.797% in data set [1] (Thermal, 50° C. (solid), 7 d); 99.177% in data set [1] (Unstressed).
With `COc1cc(-c2cn(C)c(=O)c3cnc(N4CCC4)cc23)cc(OC)c1CN1CCC(CN2CCC3(CC2)CN(c2ccc4c(c2)C(=O)N([C@@H]2CCC(=O)NC2=O)C4)C3)CC1.O=C(O)CC(O)(CC(=O)O)C(=O)O` [citrate-A], in data set [2], the “physical stability (XRPD) upon drying at 50° C. under vacuum and exposure to >95% RH” value is “became amorphous after drying and exposure to RH”.
Consider `COc1cc(-c2cn(C)c(=O)c3cnc(N4CCC4)cc23)cc(OC)c1CN1CCC(CN2CCC3(CC2)CN(c2ccc4c(c2)C(=O)N([C@@H]2CCC(=O)NC2=O)C4)C3)CC1` [crystal pattern FF-A], for which the XRPD after storage entry in data set [3] is given as “converted to compound R-D1, crystal pattern FF-B”.
